# Measured values as given in patent US10604742B2, “Adsorptive membranes for trapping viruses” (Wisconsin Alumni Research Foundation, priority 2006, dated 2020).
# Like-named read-outs stand apart in the source and are kept apart here.
# How the values were obtained:
# [1] = target: bovine serum albumin (BSA) (Bos taurus, UniProt P02769); experiment: Function test 1: static BSA binding capacity of ligand-functionalized regenerated cellulose membranes (BCA method); details: 20 mM piperazine, pH 6.0
# Protocol: These ligands were evaluated using two different function tests. In the first function test, bovine serum albumin (BSA) in 20 mM piperazine, pH 6.0, with and without added NaCl, was incubated with a functionalized regenerated cellulose membrane. Bound BSA was then measured using the bicinchoninic acid (BCA) colorimetric method. Function test 1 measured the static protein binding capacity of the membranes under conditions where the pH was close to the isoelectric point of the protein (pI of BSA=5.1). In this function test, the protein had only a weak charge and was sensitive to added salt. This first function test was designed to mimic the binding of a neutral virus where the charge is weak.
# Each ligand was immobilized onto regenerated cellulose membranes having 0.45 μm pore diameter using allyl glycidyl ether. The allylated membrane was then brominated. Lastly the ligand was coupled to the membrane via the primary amine on the ligand.
# neutral virus φX174 [2] = experiment: Function test 2: LRV for φX174 using functionalized membranes in flow mode, TE buffer pH 7.5; assay type: binding, bacteriophage φX174; details: for φX174 LRV: TE buffer pH 7.5
# Description: In these examples, the neutral virus φX174 is used because is one of five model non-pathogenic bacteriophage viruses commonly used in filtration studies to represent the gamut of physical properties of potential adventitious viruses of danger to humans (e.g., size, pI, presence or absence of a membrane). In short, the φX174 virus is an art-recognized virus for modeling viral clearance of dangerous pathogens.
# Function test 2 measured the LRV for the neutral virus φX174 using the functionalized membranes in flow mode with TE buffer (10 mM Tris, 1 mM EDTA, pH 7.5) with and without added NaCl. Each ligand was immobilized onto regenerated cellulose membranes having 0.45 μm pore diameter using allyl glycidyl ether. The allylated membrane was then brominated. Lastly the ligand was coupled to the membrane via the primary amine on the ligand.
# φX174 = details: cited from earlier work
# [3] = cited from earlier work
# neutral virus φX174 [4] = experiment: Example 3: φX174 clearance by AGM membrane in presence of basic protein ribonuclease A (FIG. 10); assay type: binding, bacteriophage φX174; details: 0.5 g/L ribonuclease A, TE buffer pH 7.5, with and without added NaCl
# Protocol: FIG. 10 is a graph depicting the performance of a virus-trapping membrane containing the immobilized ligand agmatine to remove a neutral virus (φX174) from a solution comprising a basic protein (0.5 g/L ribonuclease) and different concentrations of salt (□=0 mM NaCl; ▴=50 mM NaCl; ▪=150 mM NaCl).
# AGM, for example, meets these requirements. […] According to the methods of Example 2, a disposable, micro-porous, regenerated-cellulose virus-trapping membrane was fabricated containing the ligand AGM immobilized on the membrane. The basic protein ribonuclease A (pI˜9.5) was used as a mAb surrogate. A feed solution comprising the neutral virus φX174 and 0.5 g/L of the basic protein ribonuclease A, both dissolved in TE buffer (10 mM Tris, 1 mM EDTA, pH 7.5), with and without added NaCl, was loaded into the membrane. Viral clearance was not reduced by the presence of the basic protein.
# [5] = high-salt buffer (23 mS/cm); cited from earlier work
# Chain of bovine serum albumin (BSA) (P02769 25-607): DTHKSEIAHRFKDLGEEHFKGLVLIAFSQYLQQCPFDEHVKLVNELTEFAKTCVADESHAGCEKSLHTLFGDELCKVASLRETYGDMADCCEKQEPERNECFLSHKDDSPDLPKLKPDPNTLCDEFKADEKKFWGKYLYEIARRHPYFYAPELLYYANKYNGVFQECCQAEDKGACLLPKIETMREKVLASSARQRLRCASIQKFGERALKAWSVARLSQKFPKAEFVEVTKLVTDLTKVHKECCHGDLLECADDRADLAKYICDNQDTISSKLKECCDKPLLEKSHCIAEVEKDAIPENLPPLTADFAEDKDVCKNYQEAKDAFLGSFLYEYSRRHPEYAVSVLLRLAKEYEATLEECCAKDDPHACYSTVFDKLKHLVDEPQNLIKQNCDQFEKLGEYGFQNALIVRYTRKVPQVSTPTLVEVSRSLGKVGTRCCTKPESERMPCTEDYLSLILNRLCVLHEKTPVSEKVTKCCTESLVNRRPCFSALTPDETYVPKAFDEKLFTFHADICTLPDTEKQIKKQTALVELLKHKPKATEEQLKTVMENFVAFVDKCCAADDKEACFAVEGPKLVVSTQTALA
Structure (SMILES),BSA Static Capacity ([1]; 0 mM NaCl) [mg/m^2],BSA Static Capacity ([1]; 50 mM NaCl) [mg/m^2],BSA Static Capacity ([1]; 150 mM NaCl) [mg/m^2],φX174 LRV (neutral virus φX174 [2]; 0 mM NaCl),φX174 LRV (neutral virus φX174 [2]; 50 mM NaCl),φX174 LRV (neutral virus φX174 [2]; 150 mM NaCl),φX174 clearance (LRV) in the presence of salt (neutral virus φX174 [2]; in the presence of salt (50 and 150 mM)),salt tolerance of viral clearance (neutral virus φX174 [2]; moderate salt concentration),viral clearance of φX174 (LRV) (φX174; 0 mM salt),"viral clearance of φX174 (LRV) (φX174; 0 mM salt, listed as “MUSTANG”® Q-brand adsorptive ligand)",viral clearance of φX174 (LRV) (φX174; 50 mM salt),"viral clearance of φX174 (LRV) (φX174; 50 mM salt, listed as “MUSTANG”® Q-brand adsorptive ligand)",pKa [3],viral clearance (LRV) of φX174 after adding the basic protein (neutral virus φX174 [4]),charge at neutral pH [3],dynamic binding capacity greater than the average of the five best non-aromatic anion-exchange ligands [5] [%],dynamic binding capacity relative to the Q ligand [5] [times]
"NCC(O)CN [DHP, 1,3-diamino-2-hydroxypropane]",946,392,85,5.4,2.1,0.1,,,,,,,,,,,
"NCCN(CCN)CCN [TAEA, tris(2-aminoethyl)amine]",,,,7.6,5.8,5.1,,,,,,,,,,,
"C[N+](C)(C)CCN.[Cl-] [AETMA, 2-aminoethyltrimethylammonium chloride, reference compound]",551,42,10,6.6,0.1,0.1,≈ 0.1,not salt tolerant,six,6,1,less than 1 LRV,>12,,,,
"N=C(N)NCCCCN [AGM, Agmatine]",1000,319,116,5.5,5.5,5.9,,,,,,,,≈ 6.0,positive charge,,
"Nc1nc2ccccc2[nH]1 [ABI, 2-aminobenzimidazole]",414,204,108,5.4,1.8,1.0,,,,,,,,,,,
"N[C@H](CO)Cc1ccccc1 [PHA, Phenylalaninol]",330,46,10,2.8,0.1,0.0,,,,,,,,,,,
"N[C@H](CO)Cc1c[nH]c2ccccc12 [TRP, Tryptophanol]",668,297,131,5.4,1.1,1.0,,,,,,,,,,,
"NCC(O)c1ccc(O)cc1 (stereo not shown) [OCT, Octopamine]",280,290,250,5.4,1.1,0.7,,,,,,,,,,,
"N[C@H](CO)Cc1ccc(O)cc1 [TYR, Tyrosinol]",638,284,137,6.4,2.7,0.9,,,,,,,10.8,,positively charged,63,36
